Experiment [1] concerns thioredoxin reductase. In words: Thioredoxin reductase activity in lysates of treated keratinocytes. It is filed as cell-based. The note with it: normal human epidermal keratinocytes, 10 μM, 24 hours, relative to control; FIG. 5. The protocol:
Normal human epidermal keratinocytes (KK-4009, KURABO) were cultured in Defined Keratinocyte-SFM medium (10744-019, GIBCO) with 5% CO2 under high humidity at 37° C. For the cells with 100% of final density, the medium was replaced with EpiLife™ Calcium-Free Phenol Red Free medium (M-EPICF/PRF-500, KURABO) whose calcium concentration had been adjusted to 1.5 mM. Twenty-four hours later, kaempferol (K0018, Tokyo Chemical Industry Co., Ltd) or quercetin (173-00403, Wako Pure Chemical Industries, Ltd.) was added so as to have a final concentration of 10 μM. Twenty-four hours after adding the agents, the cells were dissolved in lysis buffer, and the insoluble fraction was removed by centrifugation at 14,000 rpm, 4° C. for 15 minutes. The amount of total protein in the soluble fraction was quantified, and then thioredoxin reductase activity was measured by the method of Arne Holmgren et al. (METHODS IN ENZYMOLOGY, 1995, 252, 199-208).

For experiment [2], the system named is redox-associated factors (thioredoxin reductase, thioredoxin, glutathione reductase, glutaredoxin). In words: mRNA expression of redox-associated factors in normal human epidermal keratinocytes (RT-PCR). Type of experiment: cell-based. The note with it: 10 μM, 24 hours, compared with vitamin E and lipoic acid, FIG. 1. The protocol: Normal human epidermal keratinocytes (KK-4009, KURABO) were cultured in Defined Keratinocyte-SFM medium (10744-019, GIBCO) with 5% CO2 under high humidity at 37° C. For the cells with 100% of final density, the medium was replaced with EpiLife™ Calcium-Free Phenol Red Free medium (M-EPICF/PRF-500, KURABO) whose calcium concentration had been adjusted to 1.5 mM. Twenty-four hours later, kaempferol (K0018, Tokyo Chemical Industry Co., Ltd), vitamin E (95240, FULKA), or lipoic acid ((+/−)-α-lipoic acid (T1395, SIGMA) was added so as to have a final concentration of 10 μM.
Twenty-four hours after adding the above agents, RNA was isolated by using QIAZOL Lysis Reagent (79306, QIAGEN) and purified by using RNeasy Kit (74106, QIAGEN). Subsequently, mRNAs of thioredoxin reductase, thioredoxin, glutathione reductase, glutaredoxin, and the ribosomal protein as an internal standard were quantified by the LightCycler™ software (Roche) using QuantiTect™ SYBR Green RT-PCR Kit (204243, QIAGEN). The Sequences of the used primers are shown below.
The mRNA amounts of thioredoxin reductase, thioredoxin, glutathione reductase and glutaredoxin were divided by the mRNA amount of the ribosomal protein to obtain the mRNA expression levels.

For experiment [3], the system named is thioredoxin superfamily. Briefly: Screen for flavonoid compounds enhancing expression of thioredoxin superfamily in keratinocytes. It is filed as cell-based. The note with it: normal human epidermal keratinocytes, 10 μM, 24 hours; FIG. 3. The protocol: Normal human epidermal keratinocytes (KK-4009, KURABO) were cultured in Defined Keratinocyte-SFM medium (10744-019, GIBCO) with 5% CO2 under high humidity at 37° C. For the cells with 100% of final density, the medium was replaced with EpiLife™ Calcium-Free Phenol Red Free medium (M-EPICF/PRF-500, KURABO) whose calcium concentration had been adjusted to 1.5 mM. Twenty-four hours later, each of the following agents was added so as to have a final concentration of 10 μM.
Twenty-four hours after adding the above agents, the mRNA expression levels of the redox-associated factors were quantified by the same method as Example 1.

The test system of experiment [4] is IL1β. In words: Suppression of expression of inflammatory cytokine IL1β mRNA in keratinocytes. Type of experiment: cell-based. The note with it: normal human epidermal keratinocytes, kaempferol 10 μM, extracts 0.1%, 24 hours; FIG. 6. The protocol: Normal human epidermal keratinocytes (KK-4009, KURABO) were cultured in Defined Keratinocyte-SFM medium (10744-019, GIBCO) with 5% CO2 under high humidity at 37° C. For the cells with 100% of final density, the medium was replaced with EpiLifeTM Calcium-Free Phenol Red Free medium ([…]) in which calcium concentration had been adjusted to 1.5 mM. Twenty-four hours later, kaempferol was added to have 10 μM of final concentration and each of the following plant extracts was added to have a final concentration of 0.1%. kaempferol ([…], Tokyo Chemical Industry Co., Ltd); K. galanga extract: which is obtained by the extraction of Kaempferia galanga rhizomes with 50% 1,3-butylene glycol; Ginkgo leaf extract: which is obtained by resolving 50% ethanol extract from Ginkgo biloba L. leaves in 1,3-butylene glycol. Twenty-four hours after adding the above agents, RNA was isolated by the same method as Example 1, and the mRNA expression level of the inflammation-associated factor (IL1β) was quantified. The used primers are shown below. The mRNA amount of IL1β was divided by the mRNA amount of the ribosomal protein to obtain the mRNA expression level.

In experiment [5] the test system is thioredoxin reductase and glutathione reductase. Briefly: mRNA expression of redox-associated factors in skin-equivalent models (q-PCR). The note with it: epidermal layer, 2 μM or 10 μM, 24 hours, FIG. 2. Type of experiment: cell-based, human. As for the experimental part: Skin-equivalent models were made from normal human keratinocytes (Invitrogen), normal human fibroblasts (ATCC) and collagen I (Sigma), and cultured in Dulbecco's Modified Eagle's Medium (D-MEM) (Invitrogen) with 5% CO2 under high humidity at 37° C. Two μM or 10 μM kaempferol was added into the culture medium, and the models were cultured for twenty-four hours. Then RNA was isolated from epidermal layer of the skin-equivalent models by using a QIAGEN mRNA isolation kit. Subsequently, mRNAs of thioredoxin reductase and glutathione reductase, and 36B4 as an internal standard, were quantified by q-PCR (quantitative PCR by Bio-Rad MyiQ™ single color real time PCR detection system) using the Real-time PCR kit (Bio-Rad). The primers were purchased from QIAGEN (TXNRD2: #QT00070371; GSR; #QT00038325). The amounts of thioredoxin reductase and glutathione reductase were divided by the mRNA amount of 36B4 to obtain the mRNA expression level.

From patent US20110189318A1, “METHODS FOR ENHANCING THE EXPRESSION OF INTRACELLULAR REDOX-ASSOCIATED FACTORS” (priority 2010, published 2011) come the findings set out here.

On to `O=c1c(O)c(-c2ccc(O)cc2)oc2cc(O)cc(O)c12` [kaempferol, Kaempferol], for which the thioredoxin reductase activity result in experiment [1] was “enhance”. Besides, the “expression of the redox-associated factors (mRNA expression level)” value in experiment [2] and in experiment [5] was “significantly enhanced” in each case. The “expression of the thioredoxin superfamily (mRNA expression level)” value in experiment [3] is reported as “significantly enhance”. In addition, the “suppression of the inflammatory cytokine IL1β (mRNA expression level)” value in experiment [4] is “suppression”.
Regarding `O=c1c(O)c(-c2ccc(O)c(O)c2)oc2cc(O)cc(O)c12` [quercetin, Quercetin], in experiment [1], the thioredoxin reductase activity entry is reported as “enhance”. In addition, the “expression of the thioredoxin superfamily (mRNA expression level)” value in experiment [3] is on record as “significantly enhance”.
As for `O=c1c(O)c(-c2cc(O)c(O)c(O)c2)oc2cc(O)cc(O)c12` [Myricetin, reference compound], the “expression of the thioredoxin superfamily (mRNA expression level)” value in experiment [3] is reported as “does not have such a function”.
